Source: US20250304567A1, “PYRROLIDIONE DERIVATIVES AS INHIBITORS OF NF KAPPA B INDUCING KINASE” (priority 2022, published 2025)

Tests used:
[1] = target: Recombinant Human NF-kappaB-Inducing Kinase (NIK/MAP3K14) (Homo sapiens, UniProt Q99558); experiment: Inhibition of auto-phosphorylation of recombinant human NIK/MAP3K14 activity (AlphaScreen); format: biochemical; conditions: 5 μM ATP, 1 nM NIK, average if tested more than once
Procedure, shortened: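 AlphaScreen detection of phospho-Ser176/180 after 1 nM GST-NIK auto-phosphorylates for 2 h at 25 °C with 5 μM ATP (50 mM Tris pH 7.5, 0.7% DMSO). IC50s come from sigmoidal curves of % inhibition against log dose, using enzyme-free, ATP-free low controls and full-activity high controls.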

[2] = system: p-IKKa levels in L363 (NIK translocated multiple myeloma) cells; experiment: Effect of compounds on p-IKKa levels in L363 (NIK translocated multiple myeloma) cells (AlphaLISA SureFire Ultra p-IKKa Ser176/180); format: cell-based, human; conditions: Homo sapiens, L-363, p-IKKa levels in L363 cells; average if tested more than once; read-out: Assay 2 IC50
Procedure, shortened: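 Phospho-IKKa (Ser176/180) in lysates quantified by AlphaLISA after 6 h compound exposure, 11-point threefold dilutions, 0.3% DMSO. L363 cells were pre-stimulated overnight and assayed with 250 ng/ml BAFF and 10 μM MG132; % inhibition fitted sigmoidally for IC50, duplicate curves.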

Recombinant Human NF-kappaB-Inducing Kinase (NIK/MAP3K14), sequence (Q99558 whole entry): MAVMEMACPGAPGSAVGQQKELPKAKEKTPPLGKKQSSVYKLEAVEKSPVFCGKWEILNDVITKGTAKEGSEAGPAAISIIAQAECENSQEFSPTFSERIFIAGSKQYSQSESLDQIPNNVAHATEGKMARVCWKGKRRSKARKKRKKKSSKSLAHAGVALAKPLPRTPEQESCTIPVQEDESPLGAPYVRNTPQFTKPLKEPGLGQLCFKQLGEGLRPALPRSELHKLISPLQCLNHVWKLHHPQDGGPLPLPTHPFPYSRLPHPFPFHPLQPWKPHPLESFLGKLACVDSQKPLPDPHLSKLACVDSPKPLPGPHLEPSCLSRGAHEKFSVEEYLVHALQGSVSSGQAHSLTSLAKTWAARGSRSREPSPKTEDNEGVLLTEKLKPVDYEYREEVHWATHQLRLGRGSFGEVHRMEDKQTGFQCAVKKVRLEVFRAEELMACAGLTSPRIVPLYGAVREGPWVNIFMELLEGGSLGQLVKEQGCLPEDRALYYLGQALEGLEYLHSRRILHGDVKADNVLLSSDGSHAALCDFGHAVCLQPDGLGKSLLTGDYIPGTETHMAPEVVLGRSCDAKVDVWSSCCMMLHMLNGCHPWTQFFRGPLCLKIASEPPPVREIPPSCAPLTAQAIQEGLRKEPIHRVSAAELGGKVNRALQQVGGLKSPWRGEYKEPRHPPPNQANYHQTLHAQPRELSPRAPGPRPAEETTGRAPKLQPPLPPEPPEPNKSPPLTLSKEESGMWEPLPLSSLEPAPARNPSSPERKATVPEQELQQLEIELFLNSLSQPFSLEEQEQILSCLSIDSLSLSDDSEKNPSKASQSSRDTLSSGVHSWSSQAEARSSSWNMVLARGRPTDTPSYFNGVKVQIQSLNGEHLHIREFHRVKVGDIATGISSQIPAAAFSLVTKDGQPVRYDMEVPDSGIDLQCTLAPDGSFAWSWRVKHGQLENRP

SMILES | IC50 [1] [nM] | IC50 [2] [nM]
CN1CC[C@@](O)(c2cccc(-c3nc(-c4ccnc(NCc5cnccn5)n4)cs3)c2)C1=O [Example 194] | 100 to 500 | > 501
CN1CC[C@@](O)(c2cccc(-c3nc(-c4ccnc(NCc5cn(C)cn5)n4)cs3)c2)C1=O [Example 196] | 100 to 500 | > 501
CN1CC[C@@](O)(c2cccc(-c3nc(-c4ccnc(NCc5ccnn5C)n4)cs3)c2)C1=O [Example 197] | < 100 | > 501
CN1CC[C@@](O)(c2cccc(-c3nc(-c4ccnc(NCCn5cccn5)n4)cs3)c2)C1=O [Example 198] | 100 to 500 | > 501
CC(Nc1nccc(-c2csc(-c3cccc([C@]4(O)CCN(C)C4=O)c3)n2)n1)c1ncco1 (stereo partly shown) [Example 199] | < 100 | > 501
Cc1cnc(CNc2nccc(-c3csc(-c4cccc([C@]5(O)CCN(C)C5=O)c4)n3)n2)o1 [Example 200] | < 100 | > 501
CN1CCC(Nc2nccc(-c3csc(-c4cccc([C@]5(O)CCN(C)C5=O)c4)n3)n2)C1=O (stereo partly shown) [Example 201] | > 501 | > 501
Cc1cc(CNc2nccc(-c3csc(-c4cccc([C@]5(O)CCN(C)C5=O)c4)n3)n2)ccn1 [Example 202] | < 100 | > 501
Cc1ccc(CNc2nccc(-c3csc(-c4cccc([C@]5(O)CCN(C)C5=O)c4)n3)n2)nc1 [Example 203] | < 100 | > 501
Cc1ccc(CNc2nccc(-c3csc(-c4cccc([C@]5(O)CCN(C)C5=O)c4)n3)n2)cn1 [Example 204] | < 100 | > 501
Cc1cccc(CNc2nccc(-c3csc(-c4cccc([C@]5(O)CCN(C)C5=O)c4)n3)n2)n1 [Example 205] | < 100 | > 501
Cc1cccnc1CNc1nccc(-c2csc(-c3cccc([C@]4(O)CCN(C)C4=O)c3)n2)n1 [Example 206] | < 100 | > 501
CC(Nc1nccc(-c2csc(-c3cccc([C@]4(O)CCN(C)C4=O)c3)n2)n1)c1ncccn1 (stereo partly shown) [Example 207] | < 100 | > 501
Cc1cnc(CNc2nccc(-c3csc(-c4cccc([C@]5(O)CCN(C)C5=O)c4)n3)n2)nc1 [Example 208] | > 501 | > 501
Cc1cc(CNc2nccc(-c3csc(-c4cccc([C@]5(O)CCN(C)C5=O)c4)n3)n2)nn1C [Example 209] | < 100 | > 501
Cc1nn(C)cc1CNc1nccc(-c2csc(-c3cccc([C@]4(O)CCN(C)C4=O)c3)n2)n1 [Example 210] | < 100 | > 501
CN1CC[C@@](O)(c2cccc(-c3nc(-c4ccnc(NCCc5cn(C)cn5)n4)cs3)c2)C1=O [Example 211] | > 501 | > 501
CC(=O)N1CC[C@@H](Nc2nccc(-c3csc(-c4cccc([C@]5(O)CCN(C)C5=O)c4)n3)n2)C1 [Example 212] | < 100 | > 501
CN1CCO[C@@H](CNc2nccc(-c3csc(-c4cccc([C@]5(O)CCN(C)C5=O)c4)n3)n2)C1 [Example 213] | > 501 | > 501
CN1CC[C@@](O)(c2cccc(-c3nc(-c4ccnc(N[C@@H]5[C@@H]6COC[C@@H]65)n4)cs3)c2)C1=O [Example 214] | 100 to 500 | > 501
CO[C@H]1C[C@H](Nc2nccc(-c3csc(-c4cccc([C@]5(O)CCN(C)C5=O)c4)n3)n2)C1 [Example 215] | < 100 | > 501
CN1CC[C@@](O)(c2cccc(-c3nc(-c4ccnc(N[C@@H]5CCC[C@H]5O)n4)cs3)c2)C1=O [Example 216] | 100 to 500 | > 501

SMILES | IC50 [1] [nM] | IC50 [2] [nM]
CN1CC[C@@](O)(c2cccc(-c3nc(-c4ccnc(NCc5ccncn5)n4)cs3)c2)C1=O [Example 217] | 100 to 500 | > 501
CN1CC[C@@](O)(c2cccc(-c3nc(-c4ccnc(NCc5ncccn5)n4)cs3)c2)C1=O [Example 218] | 100 to 500 | > 501
Cc1ncccc1CNc1nccc(-c2csc(-c3cccc([C@]4(O)CCN(C)C4=O)c3)n2)n1 [Example 219] | < 100 | > 501
CN1CC[C@@](O)(c2cccc(-c3nc(-c4ccnc(NC5CC6CC(O)C5C6)n4)cs3)c2)C1=O (stereo partly shown) [Example 220] | 100 to 500 | > 501
CC(=O)N1CC[C@H](Nc2nccc(-c3csc(-c4cccc([C@]5(O)CCN(C)C5=O)c4)n3)n2)C1 [Example 221] | 100 to 500 | > 501
CN1CC(Nc2nccc(-c3csc(-c4cccc([C@]5(O)CCN(C)C5=O)c4)n3)n2)CCC1=O (stereo partly shown) [Example 222] | < 100 | > 501
CN1CCC[C@H](Nc2nccc(-c3csc(-c4cccc([C@]5(O)CCN(C)C5=O)c4)n3)n2)C1=O [Example 223] | > 501 | > 501
CN1CC[C@@](O)(c2cccc(-c3nc(-c4ccnc(NC5(c6ccccn6)CC5)n4)cs3)c2)C1=O [Example 224] | 100 to 500 | > 501
CN1CC[C@@](O)(c2cccc(-c3nc(-c4ccnc(NC5CCc6cccnc65)n4)cs3)c2)C1=O (stereo partly shown) [Example 225] | 100 to 500 | > 501
CN1CC[C@@](O)(c2cccc(-c3nc(-c4ccnc(NC5(c6ncccn6)CC5)n4)cs3)c2)C1=O [Example 226] | > 501 | > 501
CN1CC[C@@](O)(c2cccc(-c3nc(-c4ccnc(NC5CCOc6cccnc65)n4)cs3)c2)C1=O (stereo partly shown) [Example 227] | < 100 | > 501
CN1CC[C@@](O)(c2cccc(-c3nc(-c4ccnc(NC5CCN(C6COC6)CC5)n4)cs3)c2)C1=O [Example 228] | > 501 | > 501
CC(Nc1nccc(-c2csc(-c3cccc([C@]4(O)CCN(C)C4=O)c3)n2)n1)C(=O)N1CCN(C)CC1 (stereo partly shown) [Example 229] | 100 to 500 | > 501
CN1CC[C@@](O)(c2cccc(-c3nc(-c4ccnc(NC5COC5)n4)cs3)c2)C1=O [Example 230] | < 100 | 100 to 500
CN1CC[C@@](O)(c2cccc(-c3nc(-c4ccnc(NCCCNS(C)(=O)=O)n4)cs3)c2)C1=O [Example 231] | 100 to 500 | > 501
CN1CC[C@@](O)(c2cccc(-c3nc(-c4ccnc(NCCCS(C)(=O)=O)n4)cs3)c2)C1=O [Example 232] | 100 to 500 | > 501
Cc1nc(Nc2nccc(-c3csc(-c4cccc([C@]5(O)CCN(C)C5=O)c4)n3)n2)sc1C [Example 233] | < 100 | 100 to 500
CN1CC[C@@](O)(c2cccc(-c3nc(-c4ccnc(NCCC(F)(F)F)n4)cs3)c2)C1=O [Example 236] | < 100 | > 501
CN1CC[C@@](O)(c2cccc(-c3nc(-c4ccnc(NCCNS(C)(=O)=O)n4)cs3)c2)C1=O [Example 237] | < 100 | > 501
CN1CC[C@@](O)(c2cccc(-c3nc(-c4ccnc(NCCCOCC(F)(F)F)n4)cs3)c2)C1=O [Example 238] | 100 to 500 | > 501
CN1CC[C@@](O)(c2cccc(-c3nc(-c4ccnc(NCCC(C)(C)O)n4)cs3)c2)C1=O [Example 239] | 100 to 500 | > 501
CN1CC[C@@](O)(c2cccc(-c3nc(-c4ccnc(NCC5(O)CC5)n4)cs3)c2)C1=O [Example 240] | 100 to 500 | > 501
